Test results: US10968186B2, “Ascochlorin derivative and use thereof as AMPK activator” (priority 2016, dated 2021)
Values after ≈ are worked out from the molar mass of the structure shown. Like-named read-outs stand apart in the source and are kept apart here.

How the values were obtained:
[1] = Stability against human liver microsomes; assay type: in vitro ADME; conditions: 2 μM compound
Method: (§1) Determination of Stability Against Mouse and Human Mirosomes
(§2) Pooled human liver microsomes (Cat. 452161; Lot. 23418) were purchased from Corning and pooled male mouse liver microsomes (Cat. M1000; Lot. 1210302) were purchased from Xenotech. Microsomes were stored at −80° C. prior to use. 40 μL of ultra-pure H2O was used instead of NADPH solution in the negative control. The negative control was used to exclude the misleading factor that was resulted from instability of chemical itself. Samples with NADPH were prepared in duplicate. Negative controls were prepared in singlet.
(§3) The reaction was started with the addition of 4 μL of 200 μM compound solution to each master solution to get the final concentration of 2 μM. Verapamil was used as positive control in the assay. Aliquots of 50 μL were taken from the reaction solution at 0, 15, 30, 45 and 60 min. The reaction was stopped by addition of 4 volumes of cold acetonitrile with IS (200 nM imipramine, 200 nM labetalol and 2 μM ketoprofen). Samples were centrifuged at 3,220 g for 40 minutes. Aliquot of […] of the supernatant was mixed with 90 μL of ultra-pure H2O and then was used for LC-MS/MS analysis. Results are shown in Table 3 by indicating remaining % of the test compound after 60 minutes incubation with liver microsomes from human and mouse in the presence of NADPH.

[2] = Stability against mouse liver microsomes; assay type: in vitro ADME; conditions: for Liver microsome stability remaining % after 60 min incubation with NADPH, mouse LM: 2 μM compound
Method: as §1, §2, §3

[3] = Solubility in pH4.0 and pH7.4 phosphate buffer solution; assay type: physicochemical; conditions: phosphate buffer (PBS), aqueous buffer, kinetic from dmso stock, 2 hr incubation, 25° C.
Method: 1) Preparation of Stock Solutions
Diclofenac was used as positive control in the assay.
2) Procedures for Solubility Determination
This study was performed in duplicate. […] The filtered samples were diluted with methanol.
3) Samples Analyzed by LC-MS/MS

[4] = pH 4.0 phosphate buffer solution, read-out: Solubility, pH 4.0 PBS
[5] = pH 7.4 phosphate buffer solution, read-out: Solubility, pH 7.4 PBS

Row | SMILES | Liver microsome stability remaining % after 60 min incubation with NADPH, human LM [1] [%] | Liver microsome stability remaining % after 60 min incubation with NADPH, mouse LM [2] [%] | solubility at 2 h [3, 4] [µM] | solubility at 2 h [3, 5] [µM] | metabolic stability: % remained after 1 hr incubation ([2]; liver microsomes of human and mouse in the presence of NADPH, 1 hr) [%]
1 | CO/N=C/c1c(C)c(Cl)c(OC)c(C/C=C(C)/C=C/[C@@]2(C)[C@H](C)CCC(C)(O)[C@@H]2C)c1O (stereo partly drawn) [Compound 14, (E)-3-chloro-6-hydroxy-5-((2E,4E)-5-((1R,2R,6R)-3-hydroxy-1,2,3,6-tetramethylcyclohexyl)-3-methylpenta-2,4-dien-1-yl)-4-methoxy-2-methylbenzaldehyde O-methyl oxime] | 99 | 88 |  |  | 
2 | CO/N=C/c1c(C)c(Cl)c(OC)c(C/C=C(C)/C=C/[C@@]2(C)[C@H](C)CC/C(=N\OCCN3CCOCC3)[C@@H]2C)c1O [Compound 16, 4-chloro-3-methoxy-6-[(1E)-(methoxyimino)methyl]-5-methyl-2-[(2E,4E)-3-methyl-5-[(1R,2R,3E,6R)-1,2,6-trimethyl-3-[[2-(morpholin-4-yl)ethoxy]imino]cyclohexyl]penta-2,4-dien-1-yl]phenol] | 56 | 76 |  |  | 
3 | CCOC(=O)CO/N=C1\CC[C@@H](C)[C@](C)(/C=C/C(C)=C/Cc2c(O)c(/C=N/OC)c(C)c(Cl)c2OC)[C@H]1C [Compound 18, ethyl 2-([[(1E,2R,3R,4R)-3-[(1E,3E)-5-[3-chloro-6-hydroxy-2-methoxy-5-[(1E)-(methoxyimino)methyl]-4-methylphenyl]-3-methylpenta-1,3-dien-1-yl]-2,3,4-trimethylcyclohexylidene]amino]oxy)acetate] | 86 | 59 |  |  | 
4 | CO/N=C/c1c(C)c(Cl)c(OC)c(C/C=C(C)/C=C/[C@@]2(C)[C@H](C)CCC(NC3CC3)[C@@H]2C)c1O (stereo partly drawn) [Compound 23, 4-chloro-2-[(2E,4E)-5-[(1R,2R,6R)-3-(cyclopropylamino)-1,2,6-trimethylcyclohexyl]-3-methylpenta-2,4-dien-1-yl]-3-methoxy-6-[(1E)-(methoxyimino)methyl]-5-methylphenol] | 74 | 98 |  |  | 
5 | CO/N=C/c1c(C)c(Cl)c(OC)c(C/C=C(C)/C=C/[C@@]2(C)[C@H](C)CCC(NC3COC3)[C@@H]2C)c1O (stereo partly drawn) [Compound 25, 4-chloro-3-methoxy-6-[(1E)-(methoxyimino)methyl]-5-methyl-2-[(2E,4E)-3-methyl-5-[(1R,2R,6R)-1,2,6-trimethyl-3-[(oxetan-3-yl)amino]cyclohexyl]penta-2,4-dien-1-yl]phenol] | 66 | 39 |  |  | 
6 | CC(/C=C/[C@@]1(C)[C@H](C)CC/C(=N\OCC(=O)O)[C@@H]1C)=C\Cc1c(O)c(C=O)c(C)c(Cl)c1OCF [Compound 26, 2-([[(1E,2R,3R,4R)-3-[(1E,3E)-5-[3-chloro-2-(fluoromethoxy)-5-formyl-6-hydroxy-4-methylphenyl]-3-methylpenta-1,3-dien-1-yl]-2,3,4-trimethylcyclohexylidene]amino]oxy)acetic Acid] |  |  | 192 (≈ 97.9 µg/mL) | 12.3 (≈ 6.27 µg/mL) | 
7 | COc1c(Cl)c(C)c(C=O)c(O)c1C/C=C(C)/C=C/[C@@]1(C)[C@H](C)CCC(=O)[C@@H]1C [MAC, 3-chloro-6-hydroxy-4-methoxy-2-methyl-5-[(2E,4E)-3-methyl-5-[(1R,2R,6R)-1,2,6-trimethyl-3-oxocyclohexyl]penta-2,4-dien-1-yl]benzaldehyde, reference compound] | 2 | 6 | < 0.08 | 0.07 (≈ 0.0293 µg/mL) | 6

The next lines start with results.

Row | Liver microsome stability remaining % after 60 min incubation with NADPH, human LM [1] [%] | Liver microsome stability remaining % after 60 min incubation with NADPH, mouse LM [2] [%] | solubility at 2 h [3, 4] [µM] | solubility at 2 h [3, 5] [µM] | SMILES | metabolic stability: % remained after 1 hr incubation ([2]; liver microsomes of human and mouse in the presence of NADPH, 1 hr) [%]
8 | 74 | 58 |  |  | COc1c(Cl)c(C)c(/C=N/O)c(O)c1C/C=C(C)/C=C/[C@@]1(C)[C@H](C)CC/C(=N\O)[C@@H]1C [Compound 3, 4-chloro-2-[(2E,4E)-5-[(1R,2R,3E,6R)-3-(hydroxyimino)-1,2,6-trimethylcyclohexyl]-3-methylpenta-2,4-dien-1-yl]-6-[(1E)-(hydroxyimino)methyl]-3-methoxy-5-methylphenol] | 
9 | 100 | 89 |  |  | CO/N=C/c1c(C)c(Cl)c(OC)c(C/C=C(C)/C=C/[C@@]2(C)[C@H](C)CC/C(=N\OC)[C@@H]2C)c1O [Compound 8, 4-chloro-3-methoxy-2-[(2E,4E)-5-[(1R,2R,3E,6R)-3-(methoxyimino)-1,2,6-trimethylcyclohexyl]-3-methylpenta-2,4-dien-1-yl]-6-[(1E)-(methoxyimino)methyl]-5-methylphenol] | 
10 | 100 | 83 |  |  | CO/N=C/c1c(C)c(Cl)c(OCF)c(C/C=C(C)/C=C/[C@@]2(C)[C@H](C)CC/C(=N\OC)[C@@H]2C)c1O [Compound 9, 4-chloro-3-(fluoromethoxy)-2-[(2E,4E)-5-[(1R,2R,3E,6R)-3-(methoxyimino)-1,2,6-trimethylcyclohexyl]-3-methylpenta-2,4-dien-1-yl]-6-[(1E)-(methoxyimino)methyl]-5-methylphenol] | 
11 | 83 | 63 |  |  | CO/N=C/c1c(C)c(Cl)c(OC)c(C/C=C(C)/C=C/[C@@]2(C)[C@H](C)CC/C(=N\O)[C@@H]2C)c1O [Compound 10, 4-chloro-2-[(2E,4E)-5-[(1R,2R,3E,6R)-3-(hydroxyimino)-1,2,6-trimethylcyclohexyl]-3-methylpenta-2,4-dien-1-yl]-3-methoxy-6-[(1E)-(methoxyimino)methyl]-5-methylphenol] | 
12 | 81 | 56 |  |  | CO/N=C/c1c(C)c(Cl)c(OCF)c(C/C=C(C)/C=C/[C@@]2(C)[C@H](C)CC/C(=N\O)[C@@H]2C)c1O [Compound 11, 4-chloro-3-(fluoromethoxy)-2-[(2E,4E)-5-[(1R,2R,3E,6R)-3-(hydroxyimino)-1,2,6-trimethylcyclohexyl]-3-methylpenta-2,4-dien-1-yl]-6-[(1E)-(methoxyimino)methyl]-5-methylphenol] | 
13 | 99 | 97 | 165 (≈ 86.6 µg/mL) | 315 (≈ 165 µg/mL) | CC(/C=C/[C@@]1(C)[C@H](C)CC/C(=N\OCC(=O)O)[C@@H]1C)=C\Cc1c(O)c(/C=N/O)c(C)c(Cl)c1OCF [Compound 27, 2-([[(1E,2R,3R,4R)-3-[(1E,3E)-5-[3-chloro-2-(fluoromethoxy)-6-hydroxy-5-[(1E)-(hydroxyimino)methyl]-4-methylphenyl]-3-methylpenta-1,3-dien-1-yl]-2,3,4-trimethylcyclohexylidene]amino]oxy)acetic Acid] | 
